Assay results from US7851471B2, “Compounds I” (AstraZeneca AB (PUBL), priority 2007, dated 2010).

Columns and labels:
[1] = system: JEG-3 cells (choriocarcinoma cell line); assay: Leptin assay in non-recombinant system: [3H]-thymidine incorporation / proliferation of JEG-3 cells; type: cell-based
Description: In JEG-3 cells (choriocarcinoma cell line) leptin is able to stimulate proliferation up to 3 fold (Biol. Reprod. (2007) 76: 203-10). […] The radioactivity incorporated by the cells is an index of their proliferative activity and is measured in counts per minute (CPM) with a liquid scintillation beta counter.
This finding can be applied to test whether a compound is able to either reproduce the effect of leptin on cell proliferation (leptin receptor agonist mimetic) (i.e., a given compound will cause an increase in incorporated [^3H]-Thymidine by the cells) or to inhibit the effect of leptin (antagonistic effect) by preventing the leptin-mediated increase in [H]-thymidine incorporation.

[2] = system: JEG-3 cells (choriocarcinoma cell line); settings: Biol. Reprod. (2007) 76: 203-10; cited from earlier work

Leptin: a hormone synthesized in fat cells that is believed to act in the hypothalamus to reduce food intake and body weight
concentration giving maximal effect on [3H]-thymidine incorporation ([1]; FIG. 5): 100 nM
EC50 ([1]; FIG. 5, read-out: concentration-dependent increase in [3H]-thymidine incorporation, EC50): 2.1 nM
stimulation of proliferation [2]: up to 3 fold
